Results: patent US4820694A, “Modifications of 3-O-demethylmycinose in macrocin and lactenocin” (priority 1986, dated 1989)
Converted amounts (≈) assume the structure as drawn. Like-named read-outs stand apart in the source and are kept apart here.

How the values were obtained:
Type in all cases: cell-based
Escherichia coli EC14 = experiment: standard agar-dilution MIC assay
Method: (§1) The MIC's in Table III were determined by standard agar-dilution assays. The MIC's in Table IV were obtained using conventional brothdilution microtiter tests.

[1] = tested on: Haemophilus influenzae 76; experiment: standard agar-dilution MIC assay; details: Haemophilus influenzae, 76
Method: as §1

[2] = tested on: Haemophilus influenzae C.L.; experiment: standard agar-dilution MIC assay; details: Haemophilus influenzae
Method: as §1

[3] = tested on: Klebsiella pneumoniae X68; experiment: standard agar-dilution MIC assay; details: Klebsiella pneumoniae, X68
Method: as §1

[4] = tested on: Pseudomonas aeruginosa X239; experiment: standard agar-dilution MIC assay; details: Pseudomonas aeruginosa, X239
Method: as §1

[5] = tested on: Staphylococcus aureus V41; experiment: standard agar-dilution MIC assay; details: Staphylococcus aureus, V41
Method: as §1

[6] = tested on: Staphylococcus aureus X1.1; experiment: standard agar-dilution MIC assay; details: Staphylococcus aureus, X1.1
Method: as §1

[7] = tested on: Staphylococcus aureus X400; experiment: standard agar-dilution MIC assay; details: Staphylococcus aureus, X400
Method: as §1

[8] = tested on: Staphylococcus epidermidis EP12; experiment: standard agar-dilution MIC assay
Method: as §1

[9] = tested on: Staphylococcus epidermidis EPI1; experiment: standard agar-dilution MIC assay; details: Staphylococcus epidermidis, EPI1
Method: as §1

[10] = tested on: Streptococcus Group D 9960; experiment: standard agar-dilution MIC assay; details: GROUPD9960, read-out: MIC
Method: as §1

[11] = tested on: Streptococcus Group D X66; experiment: standard agar-dilution MIC assay; details: read-out: MIC
Method: as §1

[12] = tested on: Streptococcus pyogenes C203; experiment: standard agar-dilution MIC assay; details: Streptococcus pyogenes, C203
Method: as §1

[13] = tested on: Staphylococcus aureus S13E; experiment: microbe, parasite or virus in culture; details: Staphylococcus aureus, S13E
Method: as §1

[14] = tested on: Streptococcus pneumoniae Park I; experiment: microbe, parasite or virus in culture; details: Streptococcus pneumoniae
Method: as §1

[15] = tested on: Bordetella bronchiseptica; experiment: broth-dilution microtiter MIC test; details: Bordetella bronchiseptica
Method: as §1

[16] = tested on: Mycoplasma gallisepticum 15E; experiment: broth-dilution microtiter MIC test; details: Mycoplasmoides gallisepticum, 15E
Method: as §1

[17] = tested on: Mycoplasma gallisepticum 29C; experiment: broth-dilution microtiter MIC test; details: Mycoplasmoides gallisepticum, 29C
Method: as §1

[18] = tested on: Mycoplasma gallisepticum 36H; experiment: broth-dilution microtiter MIC test; details: Mycoplasmoides gallisepticum, 36H
Method: as §1

Mycoplasma hyorhinis 29E = experiment: broth-dilution microtiter MIC test; details: Mycoplasma, 29E
Method: as §1

Mycoplasma synoviae 40A = experiment: broth-dilution microtiter MIC test; details: Mycoplasmopsis synoviae, 40A
Method: as §1

[19] = tested on: Pasteurella hemolytica 22C; experiment: broth-dilution microtiter MIC test; details: Pasteurella, 22C
Method: as §1

[20] = tested on: Pasteurella hemolytica 23C; experiment: broth-dilution microtiter MIC test; details: Pasteurella, 23C
Method: as §1

[21] = tested on: Pasteurella hemolytica 41D; experiment: broth-dilution microtiter MIC test; details: Pasteurella, 41D
Method: as §1

[22] = tested on: Pasteurella multocida 17E; experiment: broth-dilution microtiter MIC test; details: Pasteurella multocida, 17E
Method: as §1

[23] = tested on: Pasteurella multocida 22A; experiment: broth-dilution microtiter MIC test; details: Pasteurella multocida, 22A
Method: as §1

[24] = tested on: Pasteurella multocida 40G; experiment: broth-dilution microtiter MIC test; details: Pasteurella multocida, 40G
Method: as §1

[25] = tested on: Pasteurella multocida 60A; experiment: broth-dilution microtiter MIC test; details: Pasteurella multocida, 60A
Method: as §1

[26] = tested on: Pasteurella multocida 68C; experiment: broth-dilution microtiter MIC test; details: Pasteurella multocida, 68C
Method: as §1

[27] = tested on: Staphylococcus aureus 19C; experiment: broth-dilution microtiter MIC test; details: Staphylococcus aureus, 19C
Method: as §1

Streptococcus sp. 19F = experiment: broth-dilution microtiter MIC test; details: Streptococcus, SP.19F
Method: as §1

[28] = broth-dilution microtiter, read-out: MIC

## CCC1OC(=O)CC(O)C(C)C(OC2OC(C)C(OC3CC(C)(O)C(O)C(C)O3)C(N(C)C)C2OC(C)=O)C(CC=O)CC(C)C(=O)C=CC(C)=CC1COC1OC(C)C(OC(C)=O)C(OC(C)=O)C1OC (centres unmarked) [Compound 3, 2',3'",4'"-Tri-O-acetyl-macrocin]
Escherichia coli EC14; agar-dilution, read-out: MIC
  MIC: > 128 µg/mL
[1]; agar-dilution, Ampicillin-resistant strain, read-out: MIC
  MIC: 2 µg/mL (≈ 1.95 µM)
[2]; agar-dilution, Ampicillin-sensitive strain, read-out: MIC
  MIC: > 128 µg/mL
[3]; agar-dilution, read-out: MIC
  MIC: > 128 µg/mL
[4]; agar-dilution, read-out: MIC
  MIC: > 128 µg/mL
[5]; agar-dilution, Penicillin-resistant strain, read-out: MIC
  MIC: 2 µg/mL (≈ 1.95 µM)
[6]; agar-dilution, read-out: MIC
  MIC: 2 µg/mL (≈ 1.95 µM)
[7]
  MIC: 4 µg/mL (≈ 3.89 µM)
[8]; agar-dilution, read-out: MIC
  MIC: 2 µg/mL (≈ 1.95 µM)
[9]; agar-dilution, read-out: MIC
  MIC: 2 µg/mL (≈ 1.95 µM)
[10]
  MIC: 4 µg/mL (≈ 3.89 µM)
[11]
  MIC: 8 µg/mL (≈ 7.78 µM)
[12]; agar-dilution, read-out: MIC
  MIC: 1 µg/mL (≈ 0.973 µM)
[13]
  MIC: 4 µg/mL (≈ 3.89 µM)
[14]; agar-dilution, read-out: MIC
  MIC: 1 µg/mL (≈ 0.973 µM)
[15]; [28]
  MIC: > 50 µg/mL
[16]; [28]
  MIC: > 50 µg/mL
[17]
  MIC: 3.12 µg/mL (≈ 3.03 µM)
[18]; [28]
  MIC: > 50 µg/mL
Mycoplasma hyorhinis 29E
  MIC: 25 µg/mL (≈ 24.3 µM)
Mycoplasma synoviae 40A; [28]
  MIC: 12.5 µg/mL (≈ 12.2 µM)
[19]; [28]
  MIC: > 50 µg/mL
[20]; [28]
  MIC: > 50 µg/mL
[21]; [28]
  MIC: > 50 µg/mL
[22]; broth-dilution microtiter, Bovine isolate, read-out: MIC
  MIC: > 50 µg/mL
[23]; [28]
  MIC: > 50 µg/mL
[24]; [28]
  MIC: > 50 µg/mL
[25]; broth-dilution microtiter, Avian isolate, read-out: MIC
  MIC: > 50 µg/mL
[26]; [28]
  MIC: > 50 µg/mL
[27]; [28]
  MIC: 6.25 µg/mL (≈ 6.08 µM)
Streptococcus sp. 19F
  MIC: 3.12 µg/mL (≈ 3.03 µM)

## CCC1OC(=O)CC(O)C(C)C(OC2OC(C)C(OC3CC(C)(O)C(O)C(C)O3)C(N(C)C)C2OC(C)=O)C(CC=O)CC(C)C(=O)C=CC(C)=CC1COC1OC(C)C(OC(=O)Cc2ccccc2)C(OC(=O)Cc2ccccc2)C1OC (centres unmarked) [Compound 11, 2'-O-Acetyl-3'",4'"-di-O-phenylacetylmacrocin]
Escherichia coli EC14
  MIC: > 128 µg/mL
[1]
  MIC: > 128 µg/mL
[2]
  MIC: > 128 µg/mL
[3]
  MIC: > 128 µg/mL
[4]
  MIC: > 128 µg/mL
[5]
  MIC: 16 µg/mL (≈ 13.6 µM)
[6]
  MIC: 16 µg/mL (≈ 13.6 µM)
[7]
  MIC: 64 µg/mL (≈ 54.2 µM)
[8]
  MIC: 32 µg/mL (≈ 27.1 µM)
[9]
  MIC: 32 µg/mL (≈ 27.1 µM)
[10]
  MIC: 16 µg/mL (≈ 13.6 µM)
[11]
  MIC: 32 µg/mL (≈ 27.1 µM)
[12]
  MIC: 4 µg/mL (≈ 3.39 µM)
[13]
  MIC: 32 µg/mL (≈ 27.1 µM)
[14]
  MIC: 1 µg/mL (≈ 0.847 µM)
[15]
  MIC: > 50 µg/mL
[16]
  MIC: 25 µg/mL (≈ 21.2 µM)
[17]
  MIC: 3.12 µg/mL (≈ 2.64 µM)
[18]
  MIC: 50 µg/mL (≈ 42.4 µM)
Mycoplasma hyorhinis 29E
  MIC: 12.5 µg/mL (≈ 10.6 µM)
Mycoplasma synoviae 40A
  MIC: 12.5 µg/mL (≈ 10.6 µM)
[19]
  MIC: > 50 µg/mL
[20]
  MIC: > 50 µg/mL
[21]
  MIC: > 50 µg/mL
[22]
  MIC: > 50 µg/mL
[23]
  MIC: > 50 µg/mL
[24]
  MIC: > 50 µg/mL
[25]
  MIC: > 50 µg/mL
[26]
  MIC: > 50 µg/mL
[27]
  MIC: 50 µg/mL (≈ 42.4 µM)
Streptococcus sp. 19F
  MIC: 3.12 µg/mL (≈ 2.64 µM)
